Results on 23 compounds are retold here after US6340704B1, “Cell differentiation inducing amide derivatives, their production and use” (Takeda Chemical Industries, Ltd., priority 1997, dated 2002).

Where a name gives a salt, the structure may show the parent alone. Marks after values point to notes of the source that are not given here.

For data set [1], the system named is Mouse-derived MC3T3-E1 osteoblast cells. Briefly: Induction of alkaline phosphatase (ALP) production in mouse osteoblastic cells, with or without 3 ng/ml BMP-4/7 heterodimer. The conditions noted are these: 72 hours; for ALP Activity (1000 × A405 ± SD) BMP Addition: medium with 3 ng/ml BMP-4/7 heterodimer; for ALP Activity (1000 × A405 ± SD) BMP Non-Addition: no BMP. The class given is cell-based. Here is the method: Induction of Alkaline Phosphatase (ALP) Production in Mouse Osteoblastic Cells
Mouse-derived MC3T3-E1 osteoblast cells were seeded in a 96-well microtiter plate of α-minimum essential medium containing FCS (fetal calf serum) (8000 cells/well). After two days when the growth had become confluent, the test substance diluted to various concentrations in Table 1 with the medium either containing or not containing 3 ng/ml of BMP-4/7 heterodimer (described in Japanese Patent Application No. 111255/1994) was added, and the microtiter plate was further incubated for 72 hours. The plate was washed once with a physiological saline solution, followed by addition of a substrate solution. The resulting mixture was incubated at room temperature for 15 minutes, followed by addition of 0.05N NaOH to terminate the reaction. The absorbance at 405 nm was measured.

One may read the melting point as the temperature of the solid-liquid transition. In the case of `CNC(=O)c1cc2ccc3c(c2c(-c2ccc(Cl)cc2)c1CO)OCO3` [Example 3, N-Methyl-9-(4-chlorophenyl)-8-hydroxymethyl-naphtho[1,2-d]-1,3-dioxole-7-carboxamide], the melting point was 202 to 204 °C.

In turn, `O=C(c1cc(-c2ccc(F)cc2)c2c3c(ccc2n1)OCO3)N1CCN(Cc2ccccc2)CC1` [Example 48, N-Benzyl-N-[9-(4-fluorophenyl)-1,3-dioxolo[4,5-f]quinoline-7-carbonyl]piperazine] showed a melting point of 147 to 148 °C.

The compound `CN(C)C(=O)c1cc(-c2ccc3c(c2)OCO3)c2c3c(ccc2c1)OCO3` [Example 16, N,N-Dimethyl-9-(1,3,-benzodioxole-5-yl)-naphtho[1,2-d]-1,3,-dioxole-7-carboxamide] had a melting point of 160 to 161 °C.

`CNC(=O)c1cc(-c2ccc(F)cc2)c2c3c(ccc2n1)OCO3` [Example 46, 9-(4-Fluorophenyl)-N-methyl-1,3-dioxolo[4,5-F]quinoline-7-carboxamide] showed a melting point of 233 to 235 °C.

In the case of `Cc1c(C(N)=O)nc2ccc3c(c2c1-c1ccc2c(c1)OCO2)OCO3` [Example 22, 9-(1,3-Benzodioxole-5-yl)-8-methyl-1,3-dioxole[4,4-f]quinoline-7-carboxamide], the “ALP Activity (1000 × A405 ± SD) BMP Addition” value in data set [1] (compound 0.01 μM) was 187 ± 3 1000 × A405; in data set [1] (compound 0.1 μM), 226 ± 6* 1000 × A405; in data set [1] (compound 1 μM), 326 ± 18* 1000 × A405. In addition, the “ALP Activity (1000 × A405 ± SD) BMP Non-Addition” value in data set [1] (compound 0.01 μM) was 135 ± 8* 1000 × A405; in data set [1] (compound 0.1 μM), 149 ± 11* 1000 × A405; in data set [1] (compound 1 μM), 190 ± 10* 1000 × A405.

Take `CNC(=O)c1nc2ccc(C)cc2c(-c2ccc(F)cc2F)c1CO` [Example 10, N-Methyl-[3-hydroxymethyl-6-methyl-4-(2,4-difluorophenyl)quinoline]-2-carboxamide]: the melting point lay within 140 to 141 °C.

Consider `NC(=O)c1cc(-c2ccc(C(F)(F)F)cc2)c2c3c(ccc2c1)OCO3` [Example 12, 9-(4-Trifluromethylphenyl)-naphto[1,2-d]-1,3-dixole-7-carboxamide], for which the melting point lay within 207 to 209 °C.

Turning to `Cc1c(C(N)=O)cc(-c2ccc3c(c2)OCO3)c2c3c(ccc12)OCO3` [Example 13, 9-(1,3-Benzodioxole-5-yl)-6-methyl-naphto[1,2-d]-1,3-dioxole-7-carboxamide], the melting point lay within 237 to 239 °C.

`CNC(=O)c1cc2ccc3c(c2c(-c2ccc4ccccc4c2)c1CO)OCO3` [Example 4, N-Methyl-9-(2-naphthyl)-8-hydroxymethyl-naphtho[1,2-d]-1,3-dioxole-7-carboxamide] returned a melting point of 207 to 210 °C. In data set [1] (compound 0.01 μM), the “ALP Activity (1000 × A405 ± SD) BMP Addition” value is recorded as 301 ± 8 1000 × A405 and the “ALP Activity (1000 × A405 ± SD) BMP Non-Addition” value is recorded as 86 ± 3 1000 × A405. For the same compound, in data set [1] (compound 0.1 μM), the “ALP Activity (1000 × A405 ± SD) BMP Addition” value is recorded as 389 ± 25* 1000 × A405 and the “ALP Activity (1000 × A405 ± SD) BMP Non-Addition” value is 108 ± 7* 1000 × A405. In data set [1] (compound 1 μM), the “ALP Activity (1000 × A405 ± SD) BMP Addition” value is listed as 554 ± 49* 1000 × A405 and the “ALP Activity (1000 × A405 ± SD) BMP Non-Addition” value is 168 ± 4* 1000 × A405.

The compound `CNC(=O)c1cc2cc3c(cc2c(-c2ccc4c(c2)OCO4)c1CO)OCO3` [Example 7, N-Methyl-(1,3-benzodioxole-5-yl)-7-hydroxymethyl-naphto[2,3-d]-1,3-dioxole-6-carboxamide] yielded a melting point of 222 to 224 °C.

Compound `CNC(=O)c1cc2ccc3c(c2c(-c2ccc(C)cc2)c1CO)OCO3` [Example 6, N-Methyl-9-(4-methylphenyl)-8-hydroxymethyl-naphtho[1,2-d]-1,3-dioxole-7-carboxamide] had a melting point of 210 to 212 °C. Besides, in data set [1] (compound 0.01 μM), the “ALP Activity (1000 × A405 ± SD) BMP Addition” value is listed as 177 ± 14 1000 × A405 and the “ALP Activity (1000 × A405 ± SD) BMP Non-Addition” value is given as 51 ± 2 1000 × A405. In addition, in data set [1] (compound 0.1 μM), the “ALP Activity (1000 × A405 ± SD) BMP Addition” value was 248 ± 6* 1000 × A405 and the “ALP Activity (1000 × A405 ± SD) BMP Non-Addition” value is 74 ± 1* 1000 × A405. Moreover, in data set [1] (compound 1 μM), the “ALP Activity (1000 × A405 ± SD) BMP Addition” value is reported as 459 ± 35* 1000 × A405 and the “ALP Activity (1000 × A405 ± SD) BMP Non-Addition” value is recorded as 168 ± 1* 1000 × A405.

`CNC(=O)c1cc2ccc3c(c2c(-c2ccc(OC)cc2)c1CO)OCO3` [Example 2, N-Methyl-9-(4-methoxyphenyl)-8-hydroxymethyl-naphtho[1,2-d]-1,3-dioxole-7-carboxamide] yielded a melting point of 187 to 190 °C. In addition, in data set [1] (compound 0.01 μM), the “ALP Activity (1000 × A405 ± SD) BMP Addition” value is 323 ± 13 1000 × A405 and the “ALP Activity (1000 × A405 ± SD) BMP Non-Addition” value was 80 ± 2 1000 × A405. Moreover, in data set [1] (compound 0.1 μM), the “ALP Activity (1000 × A405 ± SD) BMP Addition” value was 354 ± 15* 1000 × A405 and the “ALP Activity (1000 × A405 ± SD) BMP Non-Addition” value is on record as 95 ± 7* 1000 × A405. Moreover, in data set [1] (compound 1 μM), the “ALP Activity (1000 × A405 ± SD) BMP Addition” value is 478 ± 17* 1000 × A405 and the “ALP Activity (1000 × A405 ± SD) BMP Non-Addition” value is recorded as 162 ± 18* 1000 × A405.

`CNC(=O)c1cc(-c2ccc3c(c2)OCO3)c2c3c(ccc2c1)OCO3` [Example 15, N-Methyl-9-(1,3-benzodioxole-5-yl)-naphtho;[1,2,-d]-1,3-dioxole-7-carboxamide]: the melting point was 206 to 208 °C.

`NC(=O)c1cc(-c2ccc(OC(F)(F)F)cc2)c2c3c(ccc2c1)OCO3` [Example 25, 9-(4-Trifluoromethoxyphenyl)naphtho[1,2-d]-1,3-dioxol-7-carboxamide] yielded a melting point of 188 to 190 °C.

For the compound `CNC(=O)c1cc2ccc3c(c2c(-c2ccc4c(c2)OCO4)c1CO)OCO3` [Example 1, N-Methyl-9-(1,3-benzodioxole-5-yl)-8-hydroxymethylnaphtho[1,2-d]-1,3-dioxole-7-carboxamide], the melting point fell in the range of 233 to 235 °C. In data set [1] (compound 0.01 μM), the “ALP Activity (1000 × A405 ± SD) BMP Addition” value is on record as 193 ± 15 1000 × A405 and the “ALP Activity (1000 × A405 ± SD) BMP Non-Addition” value is 50 ± 5 1000 × A405. Also, in data set [1] (compound 0.1 μM), the “ALP Activity (1000 × A405 ± SD) BMP Addition” value was 213 ± 5* 1000 × A405 and the “ALP Activity (1000 × A405 ± SD) BMP Non-Addition” value is given as 58 ± 5* 1000 × A405. In data set [1] (compound 1 μM), the “ALP Activity (1000 × A405 ± SD) BMP Addition” value is listed as 386 ± 30* 1000 × A405 and the “ALP Activity (1000 × A405 ± SD) BMP Non-Addition” value is 102 ± 5* 1000 × A405.

Regarding `CNC(=O)c1nc2ccc(C)cc2c(-c2ccccc2)c1CO` [Example 9, N-methyl-(3-hydroxmethyl-6-methyl-4-phenylquinoline)-2-carboxamide], the melting point was in the range of 136 to 137 °C.

With `CNC(=O)c1cc2ccc3c(c2c(-c2ccc(OC(F)(F)F)cc2)c1CO)OCO3` [Example 24, N-Methyl-9-(4-trifluoromethoxyphenyl)-8-hydroxymethylnaphtho[1,2-d]-1,3-dioxol-7-carboxamide], the melting point lay within 195 to 197 °C.

Consider `CN(C)CCCNC(=O)c1cc(-c2ccc3c(c2)OCO3)c2c3c(ccc2c1)OCO3` (as salt: hydrochloride) [Example 19, N-(3-Dimethylaminopropyl)-9-(1,3-benzodioxole-5-yl)-naphtho [1,2-d]-1,3-dioxole-7-carboxamide hydrochloride], for which the melting point lay in the range of 233 to 240 °C.

As to `NC(=O)c1cc(-c2ccc3c(c2)OCO3)c2c3c(ccc2c1)OCO3` [Example 14, 9-(1,3-Benzodioxole-5-yl)-naphtho[1,2-d]-1,3-dioxole-7-carboxamide], the melting point lay in the range of 267 to 269 °C.

`CNC(=O)c1nc2ccc3c(c2c(-c2ccc4c(c2)OCO4)c1C)OCO3` [Example 23, N-methyl-9-(1,3-benzodioxole-5yl)-8-methyl-1,3-dioxolo [4,5-f]quinoline-7-carboxamide]: the melting point lay within 141 to 146 °C.

`CNC(=O)c1cc2ccc3c(c2c(-c2ccc(F)cc2)c1CO)OCO3` [Example 5, N-Methyl-9-(4-fluorophenyl)-8-hydroxymethyl-naphtho[1,2-d]-1,3-dioxole-7-carboxamide] registered a melting point of 210 to 213 °C. Also, in data set [1] (compound 0.01 μM), the “ALP Activity (1000 × A405 ± SD) BMP Addition” value is given as 170 ± 20 1000 × A405 and the “ALP Activity (1000 × A405 ± SD) BMP Non-Addition” value is reported as 49 ± 1 1000 × A405. In data set [1] (compound 0.1 μM), the “ALP Activity (1000 × A405 ± SD) BMP Addition” value is 237 ± 14* 1000 × A405 and the “ALP Activity (1000 × A405 ± SD) BMP Non-Addition” value is 62 ± 3* 1000 × A405. In data set [1] (compound 1 μM), the “ALP Activity (1000 × A405 ± SD) BMP Addition” value was 431 ± 26* 1000 × A405 and the “ALP Activity (1000 × A405 ± SD) BMP Non-Addition” value is reported as 157 ± 11* 1000 × A405.

Take `COc1ccc(-c2cc(C(N)=O)cc3ccc4c(c23)OCO4)cc1` [Example 11, 9(4-Methoxyphenyl)-naphtho[1,2,-d]-1,3,-dioxole-7-carboxamide]: the melting point was 187 to 189 °C.

Turning to `NC(=O)c1nc2ccc3c(c2c(-c2ccc4c(c2)OCO4)c1CO)OCO3` [Example 8, 9(1,3-Benzodioxole-5-yl)-8hydroxymethyl-1,3-dioxolo[4,5-f]quinoline-7-carboxamide], the “ALP Activity (1000 × A405 ± SD) BMP Addition” value is on record as 426 ± 28 1000 × A405 in data set [1] (compound 0.01 μM), 477 ± 15* 1000 × A405 in data set [1] (compound 0.1 μM) and 570 ± 63* 1000 × A405 in data set [1] (compound 1 μM). For the same compound, the “ALP Activity (1000 × A405 ± SD) BMP Non-Addition” value in data set [1] (compound 0.01 μM) is 105 ± 22 1000 × A405; in data set [1] (compound 0.1 μM), 134 ± 12 1000 × A405; in data set [1] (compound 1 μM), 186 ± 26 1000 × A405.
